Structures can show the parent of a compound that is named as a salt.
Columns and labels:
Format in all cases: cell-based
SOAT = target: T1, SOAT (Homo sapiens, UniProt Q3KNW5); assay: Substrate screening: sodium-dependent uptake of radiolabeled compounds in SOAT-HEK293 cells; conditions: SOAT-HEK293, vs sodium-free control
T1 construct: The full-length open reading frames of NTCP, ASBT, and SOAT were cloned; expressed in transfected cells; host or cells: Flp-In T-REX HEK293 (SOAT-HEK293), tetracycline-induced
T1 sequence (Q3KNW5 1-377): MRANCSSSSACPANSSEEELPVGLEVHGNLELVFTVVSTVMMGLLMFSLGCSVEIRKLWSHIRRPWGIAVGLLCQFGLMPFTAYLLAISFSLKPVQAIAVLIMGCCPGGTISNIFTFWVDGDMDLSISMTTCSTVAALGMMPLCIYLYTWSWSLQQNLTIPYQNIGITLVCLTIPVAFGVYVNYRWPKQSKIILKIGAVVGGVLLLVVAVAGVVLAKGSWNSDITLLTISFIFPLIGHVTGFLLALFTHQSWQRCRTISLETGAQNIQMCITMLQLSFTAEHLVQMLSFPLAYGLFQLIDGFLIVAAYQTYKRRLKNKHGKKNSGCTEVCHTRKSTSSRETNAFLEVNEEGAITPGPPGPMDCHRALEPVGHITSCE
Description: Stably SLC10 transporter transfected NTCP-HEK293, ASBT-HEK293, SOAT-HEK293 cells and the HEK293-FlpIn maternal cell line were seeded on 24-well plates (if not stated otherwise for individual assays). Well plates were coated with poly-D-lysine prior to seeding of 125,000 cells per well. Cells were grown with 1 ml of standard medium per well with or without tetracycline ([…]) for 72 h to induce carrier expression before respective assays were started. HEK293-FlpIn cells were cultivated with standard medium and served as control.
(§1) Uptake experiments were initiated by replacing the preincubation buffer by 500 μL transport buffer containing the radiolabeled test compound and were performed at 37°C. Transport was terminated by removing the transport buffer and washing five-times with ice-cold PBS. Cell monolayers were lysed in 1 N NaOH with 0.1% SDS and the cell-associated radioactivity was determined by liquid scintillation counting.
FIGURE 1 Comparative substrate screening for bile acids and sulfated steroids in NTCP-, ASBT-, and SOAT-HEK293 cells. Transport assays were performed with the indicated substrates in NTCP-HEK293, ABST-HEK293, SOAT-HEK293, and HEK293-FlpIn cells. Cells were washed and equilibrated with Na^+-containing transport buffer (filled bars) or with Na^+-free transport buffer (open bars) at 37°C. For uptake, cells were incubated with radiolabeled steroid compounds at a final concentration of 200 nM in Na^+-containing or Na^+-free transport buffer for 10 min. Radiolabeled bile acids were used at 1 µM concentrations and transport was analyzed over 30 min. HEK293-FlpIn cells served as additional controls. After the indicated time intervals, cells were washed with ice-cold PBS, lysed and subjected to liquid scintillation counting. […] 3-OH, trihydroxylated BAs; 2-OH, dihydroxylated BAs; 1-OH, monohydroxylated BAs.

NTCP = target: T2, NTCP (Homo sapiens, UniProt Q14973); assay: Transport kinetics (concentration-dependent uptake) in NTCP-HEK293 cells; design: The full-length open reading frames of NTCP, ASBT, and SOAT were cloned; expressed in transfected cells; host or cells: Flp-In T-REX HEK293 (NTCP-HEK293), tetracycline-induced; conditions: uptake via NTCP, 1 min, 37°C
T2 sequence (Q14973 1-349): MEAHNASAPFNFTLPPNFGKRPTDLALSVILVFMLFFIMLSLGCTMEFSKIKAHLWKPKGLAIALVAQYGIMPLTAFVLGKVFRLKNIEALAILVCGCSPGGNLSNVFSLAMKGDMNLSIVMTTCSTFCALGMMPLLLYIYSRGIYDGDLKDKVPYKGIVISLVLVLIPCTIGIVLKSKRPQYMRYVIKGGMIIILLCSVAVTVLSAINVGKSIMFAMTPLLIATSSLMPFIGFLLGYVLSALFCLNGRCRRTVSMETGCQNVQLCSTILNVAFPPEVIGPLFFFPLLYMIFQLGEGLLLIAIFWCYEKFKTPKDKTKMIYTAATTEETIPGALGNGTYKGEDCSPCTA
Description: as §1
(§2) FIGURE 2 NTCP, ASBT, and SOAT transport kinetics. Concentration-dependent uptake was analyzed in NTCP-HEK293, ASBT-HEK293, and SOAT-HEK293 cells for the indicated substrates at increasing substrate concentrations. Stably transfected HEK293 cells were pretreated with 1 μg/ml tetracycline to induce carrier expression. HEK293-FlpIn cells were used as control. Uptake was analyzed for 1 min at 37°C. Afterward, the medium was removed and each cell monolayer was washed and processed to determine the protein content and cell-associated radioactivity. Specific uptake was calculated by subtracting non-specific uptake of the HEK293-FlpIn control cells (open squares) from uptake into carrier-overexpressing HEK293 cells (filled squares) and is shown by broken lines. The values represent means ± SD of duplicate experiments, each with triplicate determinations (n = 6).

ASBT = target: T3, ASBT (Homo sapiens, UniProt Q12908); assay: Transport kinetics (concentration-dependent uptake) in ASBT-HEK293 cells; conditions: uptake via ASBT, 1 min, 37°C
T3 construct: The full-length open reading frames of NTCP, ASBT, and SOAT were cloned; expressed in transfected cells; host or cells: Flp-In T-REX HEK293 (ASBT-HEK293), tetracycline-induced
T3 sequence (Q12908 1-348): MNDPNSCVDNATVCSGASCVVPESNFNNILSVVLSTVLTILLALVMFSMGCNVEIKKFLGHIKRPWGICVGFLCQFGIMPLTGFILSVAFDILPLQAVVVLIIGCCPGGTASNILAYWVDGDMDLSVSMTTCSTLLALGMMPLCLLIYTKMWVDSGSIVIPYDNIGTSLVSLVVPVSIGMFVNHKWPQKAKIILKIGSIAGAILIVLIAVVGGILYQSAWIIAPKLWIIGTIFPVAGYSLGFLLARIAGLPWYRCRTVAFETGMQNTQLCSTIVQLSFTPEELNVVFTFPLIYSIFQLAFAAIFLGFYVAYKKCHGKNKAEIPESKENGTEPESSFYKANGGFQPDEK
Description: as §1, §2

| Compound | Transport activity grading SOAT (mean uptake) (SOAT; radiolabeled steroid compounds 200 nM, 10 min) | Apparent K m (NTCP) [µM] | V max (NTCP) [pmol/mg protein/min] | Apparent K m (ASBT) [µM] | V max (ASBT) [pmol/mg protein/min] | Transport activity grading SOAT (mean uptake) (SOAT; radiolabeled bile acids 1 µM, 30 min) |
| --- | --- | --- | --- | --- | --- | --- |
| C[C@]12CC[C@H](OS(=O)(=O)O)CC1=CC[C@@H]1[C@@H]2CC[C@]2(C)C(=O)CC[C@@H]12 [DHEAS, Dehydroepiandrosterone sulfate] | ++ (“++” for values between 10 and 100) | 56.1 ± 8.0 | 2198 ± 101.7 |  |  |  |
| C[C@H](CCC(=O)NCCS(=O)(=O)O)[C@H]1CC[C@H]2[C@@H]3[C@H](O)C[C@@H]4C[C@H](O)CC[C@]4(C)[C@H]3C[C@H](O)[C@]12C [Taurocholic acid] |  | 13.1 ± 0.8 | 2395 ± 59 | 14.7 ± 1.5 | 1821 ± 75.1 |  |
| C[C@H](CCC(=O)NCCS(=O)(=O)O)[C@H]1CC[C@H]2[C@@H]3CC[C@@H]4C[C@H](O)CC[C@]4(C)[C@H]3CC[C@]12C [Taurolithocholic acid] |  | 18.4 ± 2.3 | 5915 ± 189 | 5.9 ± 1.8 | 1585 ± 99.7 | ++ (“++” for values between 500 and 1000) |

From PMC8165160, “Substrate Specificities and Inhibition Pattern of the Solute Carrier Family 10 Members NTCP, ASBT and SOAT” (Frontiers in Molecular Biosciences, 2021)
